The target of one series is T1, CFR1R receptor (Homo sapiens, UniProt P34998).
T1 construct: host or cells: CHO-K1 (clone 2)
T1 sequence (P34998 24-415): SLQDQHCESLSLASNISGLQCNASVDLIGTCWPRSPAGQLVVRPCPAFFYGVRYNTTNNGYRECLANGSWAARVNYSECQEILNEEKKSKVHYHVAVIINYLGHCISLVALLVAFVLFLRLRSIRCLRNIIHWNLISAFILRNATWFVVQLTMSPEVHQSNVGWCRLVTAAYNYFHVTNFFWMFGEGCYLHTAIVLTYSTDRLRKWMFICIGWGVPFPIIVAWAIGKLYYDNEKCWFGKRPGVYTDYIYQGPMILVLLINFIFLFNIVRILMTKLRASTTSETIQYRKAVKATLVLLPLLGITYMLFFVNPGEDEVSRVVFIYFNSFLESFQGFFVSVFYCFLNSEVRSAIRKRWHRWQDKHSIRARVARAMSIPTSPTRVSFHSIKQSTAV
The series is described as follows: Activity at anti-target CFR1R receptor, cAMP assay in CRF1R-overexpression CHO-K1 cells. To be noted: 100% = Sauvagine at 100 nM; for EC50: cAMP. The class given is cell-based. The gist of the method: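 cAMP readout in CRF1R-overexpressing CHO-K1 cells (clone 2), run as for the TeloHAEC assay at 4000 cells/well final. Cells came from cryopreserved banks. Sauvagine at 100 nM defined 100% activation.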

Series [1] can be described thus: In vitro subcutaneous tissue supernatant (SCts) stability and metabolite identification, rat. The class given is in vitro ADME. Also on record: remaining at 2 h: dose or concentration left out as unconfirmed. To be noted: male, Sprague Dawley; rat subcutaneous tissue supernatant (SCts), 37° C, 2 h.
Series [2] can be described thus: Pharmacokinetics in male Sprague Dawley rats after subcutaneous administration. It counts as in vivo. To be noted: plasma, rat, SC, 0.05 mg/kg. As to the method: The pharmacokinetics of UCN-2 derivatives was studied in male Sprague Dawley rats after subcutaneous administration (SC) at 0.05, 0.1, 0.3 or 1 mg/kg. Peptides were formulated as a solution in 10 mM phosphate pH 7.4 buffer+glycerol 85% (2.3% v/v)). […] The supernatant (200 μL) was analyzed by LC-MSMS. Pharmacokinetic parameters were calculated using established non-compartmental methods. The area under the plasma concentration curve versus time (AUC) was determined using Watson LIMS (version 7.6), with linear trapezoidal interpolation in the ascending slope and logarithmic trapezoidal interpolation in the descending slope. The portion of the AUC from the last measurable concentration to infinity was estimated from the equation, Ct/kel, where Ct represents the last measurable concentration and kel is the elimination rate constant. The latter was determined from the concentration curve versus time by linear regression at the terminal phase of the semi-logarithmic plot.

Series [3] in a line: Chemical stability in buffer (pH 7.4 / pH 4.5), % purity loss. To be noted: 40° C. vs 5° C., 14 or 28 days; for Buffer stability pH 4.5 % purity loss: 100 mM acetate buffer pH 4.5; for Buffer stability pH 7.4 % purity loss: 100 mM phosphate buffer pH 7.4. It counts as physicochemical. The procedure, abridged: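 Compounds dissolved at 10 mg/mL target in 100 mM phosphate (pH 7.4) or 100 mM acetate (pH 4.5) buffer for 1 h at room temperature, then centrifuged. Diluted supernatant stored at 5 °C or 40 °C for 14 or 28 days; % purity loss by LC-UV.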

A further series concerns the target T2, human CRF2a receptor (Homo sapiens, UniProt Q13324).
T2 construct: expressed in transfected cells; host or cells: TeloHEAC cells
T2 sequence (Q13324 1-411): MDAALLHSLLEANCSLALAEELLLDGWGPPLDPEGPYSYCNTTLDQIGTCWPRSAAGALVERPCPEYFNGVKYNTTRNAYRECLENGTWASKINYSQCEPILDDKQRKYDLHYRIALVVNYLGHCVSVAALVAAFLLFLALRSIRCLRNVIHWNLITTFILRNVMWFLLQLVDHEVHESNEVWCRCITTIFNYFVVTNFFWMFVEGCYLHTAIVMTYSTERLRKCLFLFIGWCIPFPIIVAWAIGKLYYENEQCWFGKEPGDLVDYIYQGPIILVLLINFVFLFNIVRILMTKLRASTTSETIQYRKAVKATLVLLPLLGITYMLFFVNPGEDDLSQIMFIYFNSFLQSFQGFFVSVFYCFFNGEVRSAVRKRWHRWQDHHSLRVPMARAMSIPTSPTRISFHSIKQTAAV
The series is described as follows: Activity at human CRF2a receptor, cAMP functional assay in TeloHEAC cells. The class given is cell-based. To be noted: TeloHEAC cells stably expressing human CRF2a receptor, relative to urocortin 2 (100 nM = 100%). The gist of the method:
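TeloHEAC cells stably expressing human CRF2a (10000 cells/well, suspended in HBSS/20 mM HEPES with 2 mM IBMX) were exposed to compounds for 30 min at 37 °C. cAMP was read as the 665/620 nm fluorescence ratio after 1 h at room temperature. EC50 was derived relative to 100 nM urocortin 2, set as 100%.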

The subject of the next series is Sprague Dawley rats. The series is described as follows: Effect on systolic blood pressure, telemetry in Sprague Dawley rats. It counts as in vivo, rat. Conditions: 0.1 mg/kg SC. The procedure, abridged: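 Sprague Dawley rats with abdominal-aorta telemetry catheters, recovered ≥10 days, received 0.1 mg/kg SC of compound or vehicle. Systolic pressure recorded 1 h pre-dose as baseline, then continuously up to 48 hours, expressed as % change from baseline; duration of action is last time point with a BP effect (n=2).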

*1 amine or outer side, *2 acyl side, *3 side chain or, on linkers, in order; H or OH if unused. Where a SMILES comes first, the peptide text is derived from it. Side-chain parts run from the residue outwards. [ ]: non-standard residue; d: D form. The star is where a group is joined. C20 diacid = O=C(O)CCCCCCCCCCCCCCCCCCC(=O)*; C18 diacid = O=C(O)CCCCCCCCCCCCCCCCC(=O)*; γGlu = O=C(O)[C@H](CCC(=O)[*:2])N[*:1]; Api = NC1(C(=O)O)CCNCC1; AEEA = NCCOCCOCC(=O)O; Aib = CC(C)(N)C(=O)O

Take `CC[C@H](C)[C@H](NC(C)=O)C(=O)N[C@H](C(=O)N[C@@H](CC(C)C)C(=O)N[C@@H](CO)C(=O)N[C@@H](CC(C)C)C(=O)N[C@@H](CC(=O)O)C(=O)N[C@@H](C(=O)N1CCC[C@H]1C(=O)N[C@H](C(=O)N[C@@H](CCCCN)C(=O)N[C@@H](CC(C)C)C(=O)N[C@@H](CCCCNC(=O)COCCOCCNC(=O)COCCOCCNC(=O)CC[C@H](NC(=O)CCCCCCCCCCCCCCCCC(=O)O)C(=O)O)C(=O)N[C@@H](CCCCN)C(=O)N[C@H](C(=O)N[C@@H](CC(C)C)C(=O)N[C@@H](CC(C)C)C(=O)N[C@@H](CCC(=O)O)C(=O)N[C@@H](CCC(N)=O)C(=O)N[C@@H](CCC(=O)O)C(=O)N[C@@H](CCCCN)C(=O)N[C@@H](CCC(N)=O)C(=O)N[C@@H](CCCCN)C(=O)N[C@@H](CCCCN)C(=O)N[C@@H](CCC(N)=O)C(=O)N[C@@H](CCCNC(=N)N)C(=O)N[C@@H](CCC(=O)O)C(=O)N[C@@H](CCC(N)=O)C(=O)N[C@@H](C)C(=O)N[C@@H](CCC(=O)O)C(=O)N[C@H](C(=O)N[C@@H](CC(N)=O)C(=O)NC(C)(C)C(=O)N[C@@H](CCC(N)=O)C(=O)N[C@H](C(=O)N[C@@H](CC(C)C)C(=O)N[C@@H](C)C(=O)N[C@@H](CCC(N)=O)C(=O)N[C@H](C(N)=O)C(C)C)[C@@H](C)CC)[C@@H](C)O)[C@@H](C)CC)[C@@H](C)CC)C(C)C)C(C)C` [compound 98] (Ac-IVLSLD[dV]PIKLK([AEEA-AEEA-γGlu-C18 diacid])KILLEQEKQKKQREQAETN[Aib]QILAQV-NH2): on CFR1R receptor, the “Emax (% I)” value is given as −2 % I and the EC50 (commonly the concentration giving half of the maximal effect) is > 250 nM. In addition, the amount remaining (commonly what is left of the initial amount, in per cent) at 2 h in series [1] was 74%. In addition, in series [2], the AUC(0-t) (in general, exposure summed from dosing to a finite time, without extrapolation to infinity) was 2710 ng·h/mL; the Cmax – broadly, the maximum level reached in the sampled fluid or tissue – came to 159 ng/mL; the Tmax (in general, the time at which the peak concentration occurs) was 5 h; the half-life (as a rule, the time needed for the level to fall by half in the phase considered) is 5.8 h. Further, in series [3], the “Buffer stability pH 4.5 % purity loss” value is 0.0/0.0 ^ % and the “Buffer stability pH 7.4 % purity loss” value is on record as 0.0/0.0 ^ %. The same molecule returned a concentration for a half-maximal effect (EC50) at human CRF2a receptor of 0.55 nM.

On to `CC[C@H](C)[C@H](NC(C)=O)C(=O)N[C@H](C(=O)N[C@@H](CC(C)C)C(=O)N[C@@H](CO)C(=O)N[C@@H](CC(C)C)C(=O)N[C@@H](CC(=O)O)C(=O)N[C@@H](C(=O)N1CCC[C@H]1C(=O)N[C@H](C(=O)N[C@@H](CCCCN)C(=O)N[C@@H](CC(C)C)C(=O)N[C@@H](CCCCNC(=O)CC[C@H](NC(=O)CCCCCCCCCCCCCCCCC(=O)O)C(=O)O)C(=O)N[C@@H](CCCCN)C(=O)N[C@H](C(=O)N[C@@H](CC(C)C)C(=O)N[C@@H](CC(C)C)C(=O)N[C@@H](CCC(=O)O)C(=O)N[C@@H](CCC(N)=O)C(=O)N[C@@H](CCC(=O)O)C(=O)N[C@@H](CCCCN)C(=O)N[C@@H](CCC(N)=O)C(=O)N[C@@H](CCCCN)C(=O)N[C@@H](C)C(=O)N[C@@H](CCC(N)=O)C(=O)N[C@@H](CCCNC(=N)N)C(=O)N[C@@H](CCC(=O)O)C(=O)N[C@@H](CCC(N)=O)C(=O)N[C@@H](C)C(=O)N[C@@H](CCC(=O)O)C(=O)N[C@H](C(=O)N[C@@H](CC(N)=O)C(=O)NC1(C(=O)N[C@@H](CCC(N)=O)C(=O)N[C@H](C(=O)N[C@@H](CC(C)C)C(=O)N[C@@H](C)C(=O)N[C@@H](CCC(N)=O)C(=O)N[C@H](C(N)=O)C(C)C)[C@@H](C)CC)CCNCC1)[C@@H](C)O)[C@@H](C)CC)[C@@H](C)CC)C(C)C)C(C)C` [compound 187] (Ac-IVLSLD[dV]PIKLK([γGlu-C18 diacid])KILLEQEKQKAQREQAETN[Api]QILAQV-NH2), for which the “Emax (% I)” value at CFR1R receptor was determined as 37 % I. The fraction remaining at 2 h in series [1] stood at 82%. Further, in series [2], the AUC(0-t) came out at 2100 ng·h/mL, the Cmax amounted to 137 ng/mL, the Tmax was determined as 7 h and the half-life was 9.7 h. In series [3], the “Buffer stability pH 4.5 % purity loss” value is given as 0.0/0.0 ^ % and the “Buffer stability pH 7.4 % purity loss” value is 0.0/0.0 ^ %. The concentration giving a half-maximal response (EC50) at human CRF2a receptor stood at 0.26 nM.

For `CC[C@H](C)[C@H](NC(C)=O)C(=O)N[C@H](C(=O)N[C@@H](CC(C)C)C(=O)N[C@@H](CO)C(=O)N[C@@H](CC(C)C)C(=O)N[C@@H](CC(=O)O)C(=O)N[C@@H](C(=O)N1CCC[C@H]1C(=O)N[C@H](C(=O)N[C@@H](CCCCN)C(=O)N[C@@H](CC(C)C)C(=O)N[C@@H](CCCCNC(=O)COCCOCCNC(=O)CC[C@H](NC(=O)CCCCCCCCCCCCCCCCCCC(=O)O)C(=O)O)C(=O)N[C@@H](CCCCN)C(=O)N[C@H](C(=O)N[C@@H](CC(C)C)C(=O)N[C@@H](CC(C)C)C(=O)N[C@@H](CCC(=O)O)C(=O)N[C@@H](CCC(N)=O)C(=O)N[C@@H](CCC(=O)O)C(=O)N[C@@H](CCCCN)C(=O)N[C@@H](CCC(N)=O)C(=O)N[C@@H](CCCCN)C(=O)N[C@@H](CCC(=O)O)C(=O)N[C@@H](CCC(N)=O)C(=O)N[C@@H](CCCNC(=N)N)C(=O)N[C@@H](CCC(=O)O)C(=O)N[C@@H](CCC(N)=O)C(=O)N[C@@H](C)C(=O)N[C@@H](CCC(=O)O)C(=O)N[C@H](C(=O)N[C@@H](CC(N)=O)C(=O)NC(C)(C)C(=O)N[C@@H](CCC(N)=O)C(=O)N[C@H](C(=O)N[C@@H](CC(C)C)C(=O)N[C@@H](C)C(=O)N[C@@H](CCC(N)=O)C(=O)N[C@H](C(N)=O)C(C)C)[C@@H](C)CC)[C@@H](C)O)[C@@H](C)CC)[C@@H](C)CC)C(C)C)C(C)C` [compound 231] (Ac-IVLSLD[dV]PIKLK([AEEA-γGlu-C20 diacid])KILLEQEKQKEQREQAETN[Aib]QILAQV-NH2), the “Emax (% I)” value at CFR1R receptor is reported as 10 % I. Moreover, the results for the EC50 at CFR1R receptor and on human CRF2a receptor were > 250 nM and 0.28 nM, respectively. In the series on Sprague Dawley rats (8 h, n=2), the “Systolic blood pressure (Mean) % change from baseline, 8 h” value is listed as −3%. In the series on Sprague Dawley rats (12 h, n=2), the “Systolic blood pressure (Mean) % change from baseline, 12 h” value is recorded as −3%. The “Systolic blood pressure (Mean) % change from baseline, 24 h” value in the series on Sprague Dawley rats (24 h, n=2) is on record as −12%. Also, the Duration of action in the series with Sprague Dawley rats (last time point with an effect on BP still observed) is recorded as >24 h. Moreover, the fraction remaining at 2 h in series [1] was 65%. Further, the “Buffer stability pH 7.4 % purity loss” value in series [3] is on record as 0.0/Not Tested %.

(Values after patent publication US20260001928A1 (CORTERIA PHARMACEUTICALS, priority 2022, published 2026).)
